Values after ≈ are worked out from the molar mass of the structure shown.
Experiments:
[1] = tested on: L1210 cells; test: Cytotoxic activity against L1210 cells; type: cell-based; settings: Mus musculus; L1210 cells, 48 hours, 37° C.; read-out: ED50, cytotoxic activity against L1210
Protocol: To obtain L1210 cells in a logarithmic phase for cytotoxic activity test, in a 250 ml Erlenmeyer flask with a screw cap including Fisher medium warmed to 36° to 37° C. L1210 cells were adjusted to a concentration of 2-3×10^5 cells/ml and then cultured, before 24 hours from the beginning of experiment. Then, the culture solution thus obtained was suspended to prepare a L1210 cell suspension having a concentration of about 0.8-1.0×10^6 cells/ml. Test sample was dissoved in ethanol or dimethylsulfoxide in a certain concentration just before the experiment. 0.1 ml of the sample solution was diluted 10 times with 0.9 ml of a fresh medium. To each screw-capped test tube were added 100, 50, 25 μl, respectively, of the sample dilutions and then added 5 ml of the cell suspension (5×10^4 cells/ml) prepared above to use as the test group. To the test tubes for the control group (2√n: n=number of the samples), only 5 ml of the cell suspension was added. All test tubes were cultured for 48 hours in a CO2 incubator at 37° C. and then the number of cells was counted using a haemacytometer.
(§1) The ED50 value is defined as a concentration (μg/ml) of the sample which inhibits the growth of cancer cells by 50% of the control group and determined according to a method described in NIC's mannual (NIC=National Cancer Institue, U.S.A.). The growth rate Y(%) of cells in the presence of the test sample in each concentration was calculated according to the followign equation: […]
(§2) In the above equation, T means the average cell number per ml in the test group after incubation for 48 hours in the presence of the test samples in each concentration, C means the average cell number per ml in the control group after incubation for 48 hours, and Co means the average cell number per ml in the control group at the beginning of incubation. The Y(%) value at each concentration and log10 value of each concentration were obtained and the regression curve was constructed according to the following equation from those obtained values. In this case, when all the Y(%) value obtained at each concentration is greater than 55% or lower than 45%, the experiment was repeatedly conducted.
(§3) To construct the regression curve Y=A+BX the values A and B were obtained using the following equation. [formula]
(§4) In the above, the value N is the number of selected points which is greater than 2 and lower than, or identical with, the number of cencentration of the test sample, Xi is log(concentration) i, and Yi is the growth ratio at (concentration)i. The value of ED50 was obtained for those obtained slope and intercept.

[2] = tested on: K-562 cells; test: Cytotoxic activity against K-562 cells; type: cell-based; settings: Homo sapiens; K562 cells, 48 hours, 37° C.; read-out: ED50, cytotoxic activity against K562
Protocol: As in the test for the cytotoxic activity against L1210 cells, the test samples were dissoved in ethanol or dimethylsulfoxide in a certain concentration. 0.1 ml of the sample solution was mixed with 0.9 ml of a fresh medium to prepare the dilutions. To each two test tubes having a screw cap were added 100, 50, 25 μl, respectively, of the sample dilutions by means of a micropipet. To each test tube for the test group and the control group (2√n: n=number of the samples) was added 5 ml of the dilutions of HL-60 cells and K-562 cells which were cultured and activated before 24 hours from the beginning of experiment and then diluted in a concentration of 1×10^5 cells/mi. All test tubes were cultured for 48 hours in a CO2 incubator at 37° C. and then the number of cells was counted using a haemacytometer.
as §1, §2, §3, §4

[3] = tested on: A549 cancer cells; test: Cytotoxic activity against A549 cancer cells (sulforhodamin B method); type: cell-based; settings: Homo sapiens; A549 cells, SRB method, 48 hours; read-out: ED50, cytotoxic activity against A549
Protocol: The cytotoxic activity against A549 cancer cells was determined using a method for measuring sulforhodamin B (SRB), which was developed in the year 1989 by NIC for measuring anticancer activity of the drug in vitro. For the experiment, cells under subculturing were separated from the attached surface with trypsin-CDTA solution and then dispensed into a 24-well flat-bottom microplate (Falcon) so that the number of cells per well is 8×10^4 (A549). The microplate was incubated in a CO2 incubator for 24 hours to attach the dispensed cells to bottom. The medium was removed with aspirator. Then, 100 μl of the solution of the test compounds diluted in a log-dose of 6 kinds of concentration was added to each well containing cells, in a multiple of 3. The microplate was incubated for further 48 hours. In addition, the diluted solution of the test compounds above was filtered through a 0.22 μm filter, before addition to the cells, to keep the experiment under sterilized condition. The cells were incubated with the test compounds for 48 hours and then the medium was removed from each well. 100 μl of 10% trichloroacetic acid (TCA) was added to each well and then the plate was allowed to stand at 4° C. for one hour to fix the cells to the bottom of plate. After fixing the cells, the plate was washed 5 to 6 times with water to completely remove any remaining TCA solution and then dried at room temperature until water is no longer present. To the completely dried plate was added the dying solution of 0.4% SRB dissolved in 1% acetic acid in an amount of 250 μl per well to stain the cells for 30 minutes and then the plate was washed again 5 to 6 times with 1% acetic acid solution to remove the remaining SRB which is not bound to the cells. The stained cell plate was dried again at room temperature. Then, the dying solution was carefully dissolved in a certain amount of 10 mM Tris so that the O.D. value in the control group at 520 nm is 0.8-1.0 Å (optical density), and the optical density at 520nm was determined. The ED50 value was obtained from the determined optical density. To calculate the activity of the drug against cancer cells, the number of cells (Tz) at the beginning of the addition of drug, the number of cells (C) after incubation with the medium in the absence of drug for 48 hours and the number of cells (T) after incubation in the presence of drugs at each concentration for 48 hours were determined.
The anticancer activity of the test compounds was determined form the following equations. Specifically, in the […] the equation (T-Tz)/(C-Tz)×100 was used and in the case of Tz<T the equation (T-Tz)/Tz×100 was used. Then the IC50 value wich is the concentration of drug which inhibits the growth of cancer cells by 50% was calcualted from the above calculated values using a data regressive function of LOTUS programme and the cytotoxic activities of the test compounds were compared with each other.

[4] = tested on: S-180 sarcoma cells; test: Animal experiment using Sarcoma S-180 cells (survival of mouse); type: in vivo, male ICR mouse; settings: ip, S-180 ICR mouse, comparative drug, 0.5 mg/kg/day (1.2 μmole)
Protocol: In this experiment, healthy male ICR mouse weighing 20 to 25 g were used as test animal and were fed with water and feed without any restriction in the chamber controlled at the temperature of 23° to 24° C. As the feed, the antibiotic-free feed for mouse was used.
S-180 cells which were incubated for 7 days within abdominal cavity of ICR mouse were separated together with ascites. To the separated cells was added sterilized cold physiological saline and the mixture was centrifuged with 400×g for 2 minutes to separate the cell precipitate. The separated cell precipitate was suspended again in sterilized cold physiological saline and then centrifuged to remove the supernatant. Only S-180 cells were taken, excluding any red bllod cells incorporated therein, washed three times with the same method as above, and then suspended to obtain the cell suspension in concentration of 10^7 cells/ml by counting the number of cells with a haemacytometer. Each 0.1 ml of this cell suspension was transplanted in an abdominal cavity.
After 24 hours from the transplantation, mouse were divided so that each group contains 8 to 9 mouse. The test sample was dissolved in a predetermined amount of dimethylsulfoxide to prepare the stock solution which was stored at 4° C. 30 μl of the stock solution was taken and then mixed with 1.5 ml of physiological saline. 0.1 ml of this mixture was intraperitoneally injected to the test animal. To the control group, 2% dimethylsulfoxide-physiological saline solution was injected. Meanwhile, doxorubicin which is used as the comparative drug was dissolved in 2% dimethylsulfoxide-physiological saline solution and then injected in an amount of 0.5 mg(titer)/kg. The schedule for injection comprises a total of 7 to 8 injections in the manner that after the transplantation of cancer cells 0.1 ml of the test sample per a day is administered for 2 to 4 days followed by the rest for one day. The survival rate was calculated on the basis of the date on which all of one control group is died (approximately 18 to 20 days). The survival rate (T/C, %) was calculated by the following equation as proposed in NIC's protocol: [formula]

SMILES	IC50 [1] [mg/L]	IC50 [2] [mg/L]	IC50 [3] [mg/L]	responders at 0.5 mg/kg/day ([4]; 1200 h, read-out: Number of mouse survived for 50 days (converted)) [%]	response vs control in vivo at 0.5 mg/kg/day ([4]; read-out: T/C) [%]
CCCCCCCC(O)C1=CC(=O)c2c(OC)ccc(OC)c2C1=O (centres unmarked) [2-(1-hydroxyoctyl)-5,8-dimethoxy-1,4-naphthoquinone]	1 (≈ 2.89 µM)	2.1 (≈ 6.06 µM)	7.5 (≈ 21.6 µM)		
CCCCCOC(CCC(C)C)C1=CC(=O)c2c(O)ccc(O)c2C1=O (centres unmarked) [2-(1-pentyloxy-4-methylpentyl)-5,8-dihydroxy-1,4-naphthoquinone]	0.3 (≈ 0.832 µM)	0.2 (≈ 0.555 µM)	1.3 (≈ 3.61 µM)		
CCCCCOC(CCC(C)C)C1=CC(=O)c2c(OC)ccc(OC)c2C1=O (centres unmarked) [2-(1-pentyloxy-4-methylpentyl)-5,8-dimethoxy-1,4-naphthoquinone]	2.6 (≈ 6.69 µM)	3 (≈ 7.72 µM)	7.8 (≈ 20.1 µM)		
COc1ccc(OC)c2c1C(=O)C=C(C(CCC(C)C)OC)C2=O (centres unmarked) [2-(1-methoxy-4-methylpentyl)-5,8-dimethoxy-1,4-naphthoquinone]	0.2 (≈ 0.602 µM)	2.1 (≈ 6.32 µM)	5.6 (≈ 16.8 µM)		
COc1cccc2c1C(=O)c1c(O)c3c(c(O)c1C2=O)C[C@@](O)(C(=O)CO)C[C@@H]3O[C@H]1C[C@H](N)[C@H](O)[C@H](C)O1 [Doxorubicin, reference compound]				44.4	230
CCCCCCCCCC(O)C1=CC(=O)c2c(OC)ccc(OC)c2C1=O (centres unmarked) [2-(1-hydroxydecyl)-5,8-dimethoxy-1,4-naphthoquinone]	1.4 (≈ 3.74 µM)	1.6 (≈ 4.27 µM)	9.2 (≈ 24.6 µM)		
CCCCCCCCCCCCC(OC(=O)CCC)C1=CC(=O)c2c(O)ccc(O)c2C1=O (centres unmarked) [2-(1-butanoyloxytridecyl)-5,8-dihydroxy-1,4-naphthoquinone]	0.6 (≈ 1.31 µM)	2.7 (≈ 5.89 µM)	> 20		
CCCCCCCC(O)C1=CC(=O)c2c(O)ccc(O)c2C1=O (centres unmarked) [2-(1-hydroxyoctyl)-5,8-dihydroxy-1,4-naphthoquinone]	0.07 (≈ 0.22 µM)	0.2 (≈ 0.628 µM)	0.4 (≈ 1.26 µM)		
CCCCCCCCCC(O)C1=CC(=O)c2c(O)ccc(O)c2C1=O (centres unmarked) [2-(1-hydroxydecyl)-5,8-dihydroxy-1,4-naphthoquinone]	0.1 (≈ 0.289 µM)	0.3 (≈ 0.866 µM)	0.5 (≈ 1.44 µM)		
CCCCCCCOC(CCC(C)C)C1=CC(=O)c2c(O)ccc(O)c2C1=O (centres unmarked) [2-(1-heptyloxy-4-methylpentyl)-5,8-dihydroxy-1,4-naphthoquinone]	0.8 (≈ 2.06 µM)	0.2 (≈ 0.515 µM)	2.4 (≈ 6.18 µM)		
CCCCCC(O)C1=CC(=O)c2c(O)ccc(O)c2C1=O (centres unmarked) [2-(1-hydroxyhexyl)-5,8-dihydroxy-1,4-naphthoquinone]	0.03 (≈ 0.103 µM)	0.02 (≈ 0.0689 µM)	1.1 (≈ 3.79 µM)		
CCCCCCCCCCCCC(O)C1=CC(=O)c2c(OC)ccc(OC)c2C1=O (centres unmarked) [2-(1-hydroxytridecyl)-5,8-dimethoxy-1,4-naphthoquinone]	1.8 (≈ 4.32 µM)	2.3 (≈ 5.52 µM)	2.8 (≈ 6.72 µM)		
CCCCCCCCCC(OC(=O)CCCCC)C1=CC(=O)c2c(O)ccc(O)c2C1=O (centres unmarked) [2-(1-hexanoyloxydecyl)-5,8-dihydroxy-1,4-naphthoquinone]	0.5 (≈ 1.12 µM)	1.1 (≈ 2.47 µM)	13 (≈ 29.2 µM)		
CCCCC(O)C1=CC(=O)c2c(O)ccc(O)c2C1=O (centres unmarked) [2-(1-hydroxypentyl)-5,8-dihydroxy-1,4-naphthoquinone]	0.04 (≈ 0.145 µM)	0.08 (≈ 0.29 µM)	0.5 (≈ 1.81 µM)		
CCCCCCCCCCCCOC(CCC(C)C)C1=CC(=O)c2c(OC)ccc(OC)c2C1=O (centres unmarked) [2-(1-dodecyloxy-4-methylpentyl)-5,8-dimethoxy-1,4-naphthoquinone]	6.3 (≈ 12.9 µM)	3.7 (≈ 7.6 µM)	4.8 (≈ 9.86 µM)		
CCCCC(O)C1=CC(=O)c2c(OC)ccc(OC)c2C1=O (centres unmarked) [2-(1-hydroxypentyl)-5,8-dimethoxy-1,4-naphthoquinone]	0.1 (≈ 0.329 µM)	1.1 (≈ 3.61 µM)	6.4 (≈ 21 µM)		
CCCCCCCCCCCCOC(CCC(C)C)C1=CC(=O)c2c(O)ccc(O)c2C1=O (centres unmarked) [2-(1-dodecyloxy-4-methylpentyl)-5,8-dihydroxy-1,4-naphthoquinone]	> 20	> 20	> 20		
CCCCCCCCCC(OC(=O)CCCCCCC)C1=CC(=O)c2c(O)ccc(O)c2C1=O (centres unmarked) [2-(1-octanoyloxydecyl)-5,8-dihydroxy-1,4-naphthoquinone]	0.9 (≈ 1.9 µM)	> 20	> 20		
COc1ccc(OC)c2c1C(=O)C=C(C(CCC(C)C)OCCC(C)C)C2=O (centres unmarked) [2-[1-(3-methylbutoxy)-4-methylpentyl]-5,8-dimethoxy-1,4-naphthoquinone]	2.5 (≈ 6.43 µM)	2.3 (≈ 5.92 µM)	3.3 (≈ 8.49 µM)		

Reference: US5696276A, “Process for preparing 5,8-dihydroxynaphthoquinone derivatives, novel 5,8-dihydroxynaphthoquinone derivatives and their use as anticancer agent” (Kuhnil Pharmaceutical Co., Ltd., priority 1993, dated 1997)
